Assay results reported in US10633407B2, “14-membered ketolides and methods of their preparation and use” (President and Fellows of Harvard College, priority 2014, dated 2020).

Tests used:
Test in all cases: CLSI broth dilution MIC determination
Assay type in all cases: cell-based
[1] = system: A. baumannii imipenem-resistant; details: Gram-negative
P. aeruginosa ATCC 27853 = details: P. aeruginosa ATCC 27853; Gram-negative
[2] = system: E. faecalis Vancomycin-resistant; details: E. faecalis Vancomycin-resistant; Gram-positive
K. pneumoniae ATCC 10031 = details: K. pneumoniae ATCC 10031; Gram-negative
[3] = system: A. baumannii chromosomal class C; details: Gram-negative
[4] = system: P. aeruginosa HPA101-1477; details: Gram-negative
K. pneumoniae SHV-12 = details: Gram-negative
E. faecalis ATCC 29212 = details: E. faecalis ATCC 29212; Gram-positive
[5] = system: H. influenzae Erythro >4, Azithro 1; details: H. influenzae Erythro >4, Azithro 1; Gram-negative
Source text: MIC data was collected for the novel macrolides that this platform has produced against over 21 unique strains of B. subtilis, E. coli, S. aureus, S. pneumoniae, and H. influenzae, including several multidrug-resistant strains, with a special focus on macrolide resistant mechanisms (vide supra). […] CLSI standard procedures for broth dilution MIC determination were used. […] These genotypes can be constitutive or inducible.

K. pneumoniae TEM-10 = details: Gram-negative
S. aureus USA600, GISA = details: S. aureus USA600, GISA; Gram-positive
Outline: (§1)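 Compounds are serially diluted in broth per CLSI standard methods to give the MIC; azithromycin and solithromycin act as comparator macrolides in many cases, and resistance genotypes may be inducible or constitutive.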

S. pneumoniae ATCC 49619 = details: S. pneumoniae ATCC 49619; Gram-positive
Outline: as §1

E. coli CTX-M-14 = details: Gram-negative
Outline: as §1

E. coli NDM-1 = details: Gram-negative
Outline: as §1

[6] = system: S. pneumoniae mef A genotype (second strain so labelled); details: Gram-positive
Outline: as §1

S. aureus MRSA: USA300 = details: S. aureus MRSA: USA300; Gram-positive
Outline: as §1

E. coli ATCC 25922 = details: E. coli ATCC 25922; Gram-negative
Outline: as §1

S. aureus ATCC 29213 = details: S. aureus ATCC 29213; Gram-positive
Outline: as §1

E. coli TEM-1 = details: E. coli TEM-1; Gram-negative
Outline: as §1

S. aureus MRSA: USA100 = details: S. aureus MRSA: USA100; Gram-positive
Outline: as §1

S. aureus erm A genotype = details: S. aureus erm A genotype; Gram-positive
Outline: as §1

[7] = system: S. pneumoniae erm B + mef A genotype; details: S. pneumoniae erm B + mef A genotype; Gram-positive
Outline: as §1

H. influenzae ATCC49247 = details: Gram-negative
Outline: as §1

A. baumannii ATCC 19606 = details: A. baumannii ATCC 19606; Gram-negative
S. pyogenes ATCC 19615 = details: S. pyogenes ATCC 19615; Gram-positive
K. pneumoniae KPC-2 = details: Gram-negative
A. baumannii IMP-4 = details: Gram-negative
[8] = system: S. pyogenes Macrolide-resistant; details: S. pyogenes Macrolide-resistant; Gram-positive

Measured: MIC

CC[C@H]1OC(=O)[C@H](C)C(=O)[C@H](C)[C@@H](O[C@@H]2OC(C)CC(N(C)C)C2O)[C@](C)(OC)C[C@@H](C)C(=O)[C@H](C)[C@H]2N(C/C=C/Cn3cc(-c4cccc(N)n4)nn3)C(=O)O[C@]12C (stereo partly shown) [FSM-100364]
0.5 µg/mL: [5]
2 µg/mL: S. aureus MRSA: USA300 | H. influenzae ATCC49247
< 0.0312 µg/mL: E. faecalis ATCC 29212 | S. pneumoniae ATCC 49619 | S. aureus ATCC 29213 | S. pyogenes ATCC 19615 | [8]
4 µg/mL: [1]
8 µg/mL: K. pneumoniae ATCC 10031 | [3] | A. baumannii ATCC 19606
16 µg/mL: E. coli ATCC 25922
0.125 µg/mL: [7]
0.25 µg/mL: [6]
32 µg/mL: K. pneumoniae TEM-10
> 32 µg/mL: all other assays above

CC[C@H]1OC(=O)[C@H](C)C(=O)[C@H](C)[C@@H](O[C@@H]2OC(C)CC(N(C)C)C2O)[C@](C)(OC)C[C@@H](C)C(=O)[C@H](C)[C@H]2N(C/C=C/Cn3nnc(-c4ccccn4)n3)C(=O)O[C@]12C (stereo partly shown) [FSM-100371]
8 µg/mL: K. pneumoniae ATCC 10031
0.125 µg/mL: [6]
32 µg/mL: [3]
2 µg/mL: [5] | H. influenzae ATCC49247
4 µg/mL: S. aureus MRSA: USA300
0.25 µg/mL: [7]
0.0625 µg/mL: [8]
< 0.0312 µg/mL: E. faecalis ATCC 29212 | S. pneumoniae ATCC 49619 | S. aureus ATCC 29213 | S. pyogenes ATCC 19615
16 µg/mL: A. baumannii ATCC 19606
> 32 µg/mL: all other assays above

CC[C@H]1OC(=O)[C@H](C)C(=O)[C@H](C)[C@@H](O[C@@H]2OC(C)CC(N(C)C)C2O)[C@](C)(OC)C[C@@H](C)C(=O)[C@H](C)[C@H]2N(C/C=C/Cn3nnnc3-c3ccccn3)C(=O)O[C@]12C (stereo partly shown) [FSM-100376]
< 0.0312 µg/mL: E. faecalis ATCC 29212 | S. pneumoniae ATCC 49619 | [6] | S. aureus ATCC 29213 | S. pyogenes ATCC 19615 | [8]
0.25 µg/mL: [7]
32 µg/mL: [1] | P. aeruginosa ATCC 27853 | K. pneumoniae TEM-10
8 µg/mL: K. pneumoniae ATCC 10031 | S. aureus MRSA: USA300 | E. coli ATCC 25922
16 µg/mL: [3] | E. coli TEM-1 | A. baumannii ATCC 19606
1 µg/mL: [5] | H. influenzae ATCC49247
> 32 µg/mL: all other assays above

CC[C@H]1OC(=O)[C@@](C)(F)C(=O)[C@H](C)[C@@H](O[C@@H]2OC(C)CC(N(C)C)C2O)[C@](C)(OC)C[C@@H](C)C(=O)[C@H](C)[C@H]2N(C/C=C/Cn3nnnc3-c3ccccn3)C(=O)O[C@]12C (stereo partly shown) [FSM-100386]
32 µg/mL: [3] | A. baumannii ATCC 19606
8 µg/mL: K. pneumoniae ATCC 10031
4 µg/mL: S. aureus MRSA: USA300 | H. influenzae ATCC49247
< 0.0312 µg/mL: E. faecalis ATCC 29212 | S. pneumoniae ATCC 49619 | S. aureus ATCC 29213 | S. pyogenes ATCC 19615
16 µg/mL: E. coli ATCC 25922 | E. coli TEM-1
0.25 µg/mL: [7]
2 µg/mL: [5]
0.0625 µg/mL: [6] | [8]
> 32 µg/mL: all other assays above
